{"source": "patent US10774085B2", "about": "“Method of treatment using substituted pyrazolo[1,5-A] pyrimidine compounds” (Array BioPharma Inc., priority 2008, dated 2020)", "target": "histidine-tagged recombinant human TrkA, cytoplasmic domain (Homo sapiens (Human), UniProt P04629)", "sequence (P04629 440-796)": "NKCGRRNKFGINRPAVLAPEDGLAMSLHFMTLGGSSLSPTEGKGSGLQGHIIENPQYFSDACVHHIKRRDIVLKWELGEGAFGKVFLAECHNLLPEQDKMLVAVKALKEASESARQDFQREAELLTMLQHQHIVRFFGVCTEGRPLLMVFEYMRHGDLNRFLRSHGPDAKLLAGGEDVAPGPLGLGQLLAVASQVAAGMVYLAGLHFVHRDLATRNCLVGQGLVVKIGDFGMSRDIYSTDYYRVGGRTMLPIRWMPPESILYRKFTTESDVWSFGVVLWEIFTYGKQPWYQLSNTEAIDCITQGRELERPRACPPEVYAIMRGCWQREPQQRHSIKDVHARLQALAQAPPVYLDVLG", "assay": "TrkA ELISA Assay", "format": "biochemical", "settings": "2.5 nM TrkA, 500 μM ATP; read-out: TrkA Elisa Enzyme IC50", "description": "An enzyme-linked immunosorbant assay (ELISA) was used to assess TrkA kinase activity in the presence of inhibitors. Immulon 4HBX 384-well microtiter plates (Thermo part #8755) were coated with a 0.025 mg/mL solution of poly (Glu, Ala, Tyr; 6:3:1; Sigma P3899). Various concentrations of test compound, 2.5 nM TrkA (Invitrogen Corp., histidine-tagged recombinant human TrkA, cytoplasmic domain), and 500 μM ATP were incubated for 25 minutes at ambient temperature in the coated plates while shaking. The assay buffer consisted of 25 mM MOPS pH 7.5, 0.005% (v/v) Triton X-100 and 5 mM MgCl2. The reaction mixture was removed from the plate by washing with PBS containing 0.1% (v/v) Tween 20. The phosphorylated reaction product was detected using 0.2 μg/mL of a phosphotyrosine specific monoclonal antibody (clone PY20) conjugated to horseradish peroxidase in conjunction with the TMB Peroxidase Substrate System (KPL). After the addition of 1M phosphoric acid, the chromogenic substrate color intensity was quantitated via absorbance at 450 nm. IC50 values were calculated using either a 4 or 5-parameter logistic curve fit."}
{"smiles": "COc1ccc(F)cc1[C@H]1CCCN1c1ccn2ncc(NC(=O)N3CCC[C@H](O)C3)c2n1", "note": "[Example 91, (S)—N-(5-((R)-2-(5-fluoro-2-methoxyphenyl)pyrrolidin-1-yl)pyrazolo[1,5-a]pyrimidin-3-yl)-3-hydroxypiperidine-1-carboxamide]", "values": [{"measurement": "IC50", "result": 10.2, "unit": "nM"}]}
